ChEMBL document CHEMBL1857833, “Screening and optimization of specific chemical series against human African Trypanosomiasis (HAT)”
≈ marks a conversion by molar mass, not a printed value. Where “and” joins values, the source holds several entries; their conditions need not be identical. Equal entries are not always repeated.

Tests used:
Trypanosoma cruzi = experiment: DNDI: Inhibition of Chagas Disease parasite Trypanosoma cruzi (Tulahuen LacZ, Clone C4), in vitro.; type: functional, organism-based
[1] = tested on: Trypanosoma brucei rhodesiense; experiment: DNDI: Inhibition of Human African Trypanosomiasis (HAT), STIB 900, in vitro; type: functional, organism-based
[2] = DNDI: Solubility in phosphate buffered saline at pH7.4 measured by nephelometry at room temperature (NEPH-RT); type: physicochemical; details: pH 7.4
in vitro [3] = details: human, t (1 / 2)
Description: DNDI: half life in human liver microsomes at a concentration of 1uM

[4] = DNDI: Cytotoxicity against L929 mouse fibroblasts, CYTO-SP, 24 hour; type: toxicity, cell-based; details: mouse, L929 mouse fibroblasts
in vitro [5] = details: human, CLint in vitro
Description: DNDI: in vitro intrinsic clearance in human liver microsomes at a concentration of 1uM

Leishmania donovani = experiment: DNDI: Inhibition of formation of Leishmania donovani (strain MHOM/ET/67/L82) axenic amastigotes, in vitro.; type: functional, organism-based
Plasmodium falciparum = experiment: DNDI: Inhibition of the malaria parasite Plasmodium falciparum, in vitro; type: functional, organism-based; details: K1
Trypanosoma brucei [6] = experiment: DNDI: Inhibition of Human African Trypanosomiasis, Cross 22, in vitro; type: functional, organism-based
[7] = DNDI: Cytotoxicity against L929 mouse fibroblasts, 72 hour.; type: toxicity, cell-based; details: mouse, L929 mouse fibroblasts
Trypanosoma brucei [8] = experiment: (§1) DNDI: Mean survival time in days (MSD) of mice after intraperitoneal injection of Human African Trypanosomiasis (HAT), EATRO 110, in vivo at 20 mg/kg/day for 4 days.; type: functional, Mus musculus
[9] = DNDI: Lipophilicity measured in Chromatographic hydrophobicity index (CHI) assay, pH 7.4; type: physicochemical; details: buffer
[10] = DNDI: Cytotoxicity against L-6 rat myoblasts from skeletal muscle cells; type: toxicity, cell-based, L6; details: L-6 rat skeletal muscle myoblasts
in vitro [11] = details: mouse, t (1 / 2)
Description: DNDI: half life in mouse liver microsomes at a concentration of 1uM

Trypanosoma brucei [12] = experiment: DNDI: Inhibition of Human African Trypanosomiasis, SBRI 427, in vitro; type: functional, organism-based
[13] = mouse, microsomes, 1 µM
Description: DNDI: in vitro intrinsic clearance in mouse liver microsomes at a concentration of 1uM

Trypanosoma brucei [14] = experiment: as §1; type: functional, Mus musculus; remark: listed apart in the source
[15] = DNDI: % of compound remaining in rat S9 microsomes at a concentration of 1uM; type: ADME, subcellular, Liver, S9 fraction
[16] = DNDI: half-life in mouse S9 microsomes at a concentration of 1uM; type: ADME, subcellular, Liver, S9 fraction
[17] = DNDI: Solubility in phosphate buffered saline at pH7.4 measured by optical density (turbidimetry) at room temperature (OD-RT); type: physicochemical; details: pH 7.4
[18] = DNDI: half life in mouse liver microsomes at a concentration of 10uM; type: ADME, Microsome
[19] = DNDI: half life in human liver microsomes at a concentration of 10uM; type: ADME, Microsome
[20] = DNDI: in vitro intrinsic clearance in mouse liver microsomes at a concentration of 10uM; type: ADME, Microsome; details: read-out: CLint in vitro
[21] = DNDI: in vitro intrinsic clearance in human liver microsomes at a concentration of 10uM; type: ADME, Microsome
Trypanosoma brucei [22] = experiment: DNDI: Inhibition of Human African Trypanosomiasis, EATRO 110, in vitro; type: functional, organism-based
[23] = Trypanosoma brucei, SBRI 427, read-out: IC50

| Structure (SMILES) | solubility kinetic [2] [µM] | IC50 at 24 h [4] [µg/mL] | IC50 at 72 h [7] [µg/mL] | chromatographic logD [9] | IC50 (Trypanosoma brucei [12]; [23]) [µg/mL] | CLint in vitro [13] [µL/min/mg] | half-life at 1 µM (in vitro [11]; liver microsomes) [h] | other results |
| --- | --- | --- | --- | --- | --- | --- | --- | --- |
| CCCCc1ccc(-c2nc(CN[C@@H]3C[C@@H]4C[C@H]([C@H]3C)C4(C)C)co2)cc1 | 6 (≈ 2.2 µg/mL) | > 50 | 0.79 (≈ 2.16 µM) | 6.6 | – | – | – | IC50 (Trypanosoma cruzi): 1.4 µg/mL (≈ 3.82 µM); IC50 [1]: 0.357 µg/mL (≈ 0.974 µM); half-life at 1 µM (in vitro [3]; microsomes): 1.35 h; microsomal CLint at 1 µM (in vitro [5]; microsomes): 10 µL/min/mg; IC50 (Leishmania donovani): 4.61 µg/mL (≈ 12.6 µM); IC50 (Plasmodium falciparum): 0.497 µg/mL (≈ 1.36 µM); IC50 (Trypanosoma brucei [6]): 0.57 µg/mL (≈ 1.56 µM); MSD (Trypanosoma brucei [8]): 3.5 days; IC50 [10]: 3.21 µg/mL (≈ 8.76 µM); half-life at 1 µM (in vitro [11]; microsomes): 0.217 h |
| CCCCCC(C)NCc1coc(-c2ccc(OC(CC)CC)cc2)n1 (stereo not drawn) | 1 (≈ 0.359 µg/mL) | – | 0.85 (≈ 2.37 µM) | – | 0.36 (≈ 1 µM) | 2 | 7.93 | MSD (Trypanosoma brucei [14]): 4 days; MSD (Trypanosoma brucei [8]): 4 days |
| Cc1ccc(Oc2ncccc2/C(=N/O)NC2CCCCC2)cc1 | 25 (≈ 8.14 µg/mL) | – | > 10 | 4.32 | 0.16 (≈ 0.492 µM) | 244.61 | 0.058 | remaining at 1 µM [15]: 0% |
| CC(C)(C)CN/C(=N\O)c1ccccc1-c1ccccc1 | 50 (≈ 14.1 µg/mL) | > 50 | – | 4.67 | 2.02 (≈ 7.15 µM) | 78 | 0.183 | half-life at 1 µM (in vitro [3]; liver microsomes): 1.12 h; microsomal CLint at 1 µM (in vitro [5]; liver microsomes): 13 µL/min/mg |
| COC/C(=N/O)c1ccc(OC)cc1 | 50 (≈ 9.76 µg/mL) | > 50 | – | 1.64 | > 5 | 19 | 0.733 | half-life at 1 µM (in vitro [3]; liver microsomes): 5.25 h; microsomal CLint at 1 µM (in vitro [5]; liver microsomes): 3 µL/min/mg |
| c1ccc2c(Oc3nc(NCCN4CCCC4)nc4ccsc34)cccc2c1 | – | – | > 10 | – | 1.06 (≈ 2.71 µM) | – | – | half-life at 1 µM [16]: 3.5 min |
| O/N=C(\CNC1CCCCC1)c1ccccc1 | 25 (≈ 5.81 µg/mL) | > 50 | – | 2.78 | > 5 | 55 | 0.25 | half-life at 1 µM (in vitro [3]; liver microsomes): 2.77 h; microsomal CLint at 1 µM (in vitro [5]; liver microsomes): 5 µL/min/mg |
| CCCCCOc1ccc(-c2nc(CNC[C@@H]3CC[C@H]4C[C@@H]3C4(C)C)co2)cc1 | < 1 | > 50 | < 3.13 | 6.45 | 0.08 (≈ 0.202 µM) | 74 | 0.2 | MSD (Trypanosoma brucei [14]): 4 days |
| O/N=C(\NC1CCCCC1)c1c(F)cccc1F | 50 (≈ 12.7 µg/mL) | > 50 | – | 3.67 | > 5 | 8 | – | half-life at 1 µM (in vitro [3]; microsomes): > 5.83 h; microsomal CLint at 1 µM (in vitro [5]; microsomes): < 5 µL/min/mg; half-life at 1 µM (in vitro [11]; microsomes): 1.73 h |
| CCCCCC(C)NCc1coc(-c2ccc(-c3ccccc3)cc2)n1 (stereo not drawn) | – | > 50 | 1.83 (≈ 5.25 µM) | 4.94 | 0.24 (≈ 0.689 µM) | – | – | IC50 (Trypanosoma cruzi): 6.4 µg/mL (≈ 18.4 µM); IC50 [1]: 0.321 µg/mL (≈ 0.921 µM); solubility kinetic [17]: < 1 µM; IC50 (Trypanosoma brucei [12]): 0.25 µg/mL and 0.42 µg/mL; IC50 (Leishmania donovani): 5 µg/mL (≈ 14.3 µM); IC50 (Plasmodium falciparum): 1.68 µg/mL (≈ 4.82 µM); IC50 (Trypanosoma brucei [6]): 0.4 µg/mL (≈ 1.15 µM); half-life at 10 µM [18]: 9.55 h; half-life at 10 µM [19]: 79.5 h; microsomal CLint at 10 µM [20]: 5 µL/min/mg; IC50 [10]: 6.78 µg/mL (≈ 19.5 µM); CLint in vitro [21]: 1 µL/min/mg |
| CC(C)Oc1ccc(-c2nc(CNC3CCCCCC3)co2)cc1 | – | – | 6.77 (≈ 20.6 µM) | – | 2.39 (≈ 7.28 µM) | 12 | 1.13 | MSD (Trypanosoma brucei [14]): 4 days; MSD (Trypanosoma brucei [8]): 4 days |
| CCOc1ccc(-c2nc(CNC3[C@H]4C[C@@H]5C[C@@H](C[C@H]3C5)C4)co2)cc1 (stereo partly drawn) | – | 43.2 (≈ 123 µM) | 6.6 (≈ 18.7 µM) | – | 1.21 (≈ 3.43 µM) | 102 | 0.133 | IC50 (Trypanosoma brucei [12]): 1.46 µg/mL and 2 µg/mL; IC50 (Trypanosoma brucei [6]): 2.15 µg/mL (≈ 6.1 µM); IC50 (Trypanosoma brucei [22]): 0.86 µg/mL (≈ 2.44 µM) |
| CCCCc1ccc(-c2nc(CNC3[C@H]4C[C@@H]5C[C@@H](C[C@H]3C5)C4)co2)cc1 (stereo partly drawn) | – | > 50 | – | – | – | – | – | IC50 (Trypanosoma cruzi): 3.9 µg/mL (≈ 10.7 µM); IC50 [1]: 0.727 µg/mL (≈ 1.99 µM); IC50 (Trypanosoma brucei [12]): 0.77 ug/ml [middle of 4 runs]; IC50 (Leishmania donovani): 9.58 µg/mL (≈ 26.3 µM); MSD (Trypanosoma brucei [14]): 4 days; IC50 (Plasmodium falciparum): 0.738 µg/mL (≈ 2.02 µM); IC50 (Trypanosoma brucei [6]): 0.44 µg/mL (≈ 1.21 µM); IC50 [10]: 8.8 µg/mL (≈ 24.1 µM) |
| O/N=C(\NC1CCCCC1)c1ccc(F)cc1 | > 200 | > 50 | – | 4.02 | 4.92 (≈ 20.8 µM) | 53 | 0.267 | half-life at 1 µM (in vitro [3]; liver microsomes): 1.2 h; microsomal CLint at 1 µM (in vitro [5]; liver microsomes): 12 µL/min/mg |
